Source: ChEMBL document CHEMBL3608278 (J Med Chem, 2015)

Assays:
[1] = target: T1, Potassium voltage-gated channel subfamily A member 3 (Homo sapiens, UniProt P22001); assay: cell-based; design: species or system Blood
[2] = target: T1, Potassium voltage-gated channel subfamily A member 3; design: species or system Blood
[3] = target: T1, Potassium voltage-gated channel subfamily A member 3; format: cell-based, CHO-K1

T1 sequence (P22001 whole entry): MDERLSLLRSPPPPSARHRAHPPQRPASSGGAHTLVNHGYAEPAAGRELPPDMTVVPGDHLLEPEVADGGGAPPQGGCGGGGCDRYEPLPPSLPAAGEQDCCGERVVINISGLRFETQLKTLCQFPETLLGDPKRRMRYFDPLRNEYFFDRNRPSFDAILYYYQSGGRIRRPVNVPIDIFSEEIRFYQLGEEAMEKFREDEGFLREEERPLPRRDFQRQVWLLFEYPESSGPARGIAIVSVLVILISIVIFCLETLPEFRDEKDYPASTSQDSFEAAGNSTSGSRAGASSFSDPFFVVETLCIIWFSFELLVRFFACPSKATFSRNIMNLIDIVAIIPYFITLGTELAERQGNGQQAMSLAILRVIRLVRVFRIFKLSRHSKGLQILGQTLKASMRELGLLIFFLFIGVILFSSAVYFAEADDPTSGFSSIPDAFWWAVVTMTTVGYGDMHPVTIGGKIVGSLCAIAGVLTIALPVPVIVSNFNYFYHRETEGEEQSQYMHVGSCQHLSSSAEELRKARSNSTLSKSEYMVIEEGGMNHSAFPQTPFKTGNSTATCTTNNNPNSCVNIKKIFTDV

`CC[C@H](C)[C@@H]1NC(=O)[C@@H](NC(=O)[C@H](CO)NC(=O)[C@@H](N)CCCNC(=N)N)CSSC[C@@H](C(=O)O)NC(=O)[C@H]([C@@H](C)O)NC(=O)CNC(=O)[C@@H]2CSSC[C@@H]3NC(=O)[C@H](CCC(N)=O)NC(=O)[C@H](Cc4ccccc4)NC(=O)[C@H](C)NC(=O)[C@H]([C@@H](C)O)NC(=O)[C@H](CSSC[C@H](NC(=O)[C@H](Cc4ccccc4)NC(=O)[C@H](CO)NC(=O)[C@H](CC(C)C)NC(=O)[C@H](CCCNC(=N)N)NC(=O)[C@H](Cc4ccc(O)cc4)NC(=O)[C@H](CCCCN)NC(=O)[C@H](CCSC)NC(=O)[C@H](CO)NC(=O)[C@H](Cc4cnc[nH]4)NC(=O)[C@H](CCCCN)NC3=O)C(=O)N[C@@H](CCCNC(=N)N)C(=O)N[C@@H](CCCCN)C(=O)N[C@@H]([C@@H](C)O)C(=O)N2)NC(=O)[C@H](CCCNC(=N)N)NC(=O)[C@H](CO)NC(=O)[C@H](CCCCN)NC(=O)[C@H](CCCNC(=N)N)NC(=O)[C@H]([C@@H](C)CC)NC(=O)[C@H]([C@@H](C)O)NC(=O)[C@H](CC(=O)O)NC1=O` showed an IC50 [1] of 253 pM, an IC50 [2] of 1050 pM and an IC50 [3] of 447 pM.
Work on `CC[C@H](C)[C@@H]1NC(=O)[C@@H](NC(=O)[C@H](CO)NC(=O)[C@@H](N)CCCNC(=N)N)CSSC[C@@H](C(=O)O)NC(=O)[C@H]([C@@H](C)O)NC(=O)CNC(=O)[C@@H]2CSSC[C@@H]3NC(=O)[C@H](CCC(N)=O)NC(=O)[C@H](Cc4ccccc4)NC(=O)[C@H](C)NC(=O)[C@H]([C@@H](C)O)NC(=O)[C@H](CSSC[C@H](NC(=O)[C@H](Cc4ccccc4)NC(=O)[C@H](CO)NC(=O)[C@H](CC(C)C)NC(=O)[C@H](CCCNC(=N)N)NC(=O)[C@H](Cc4ccc(O)cc4)NC(=O)[C@H](CCCCN)NC(=O)[C@H](CCSC)NC(=O)[C@H](CO)NC(=O)[C@H](Cc4cnc[nH]4)NC(=O)[C@H](CCCCN)NC3=O)C(=O)N[C@@H](CCCNC(=N)N)C(=O)N[C@@H](CCCCN)C(=O)N[C@@H]([C@@H](C)O)C(=O)N2)NC(=O)[C@H](CCCNC(=N)N)NC(=O)[C@H](CCCNC(=N)N)NC(=O)[C@H](CCCCN)NC(=O)[C@@H]2CCCN2C(=O)[C@H]([C@@H](C)CC)NC(=O)[C@H]([C@@H](C)O)NC(=O)[C@H](CC(=O)O)NC1=O` yielded an IC50 [1] of 72 pM, an IC50 [2] of 129 pM and an IC50 [3] of 73 pM.
In the case of `CC[C@H](C)[C@@H]1NC(=O)[C@@H](NC(=O)[C@H](CO)NC(=O)[C@@H](N)CCCNC(=N)N)CSSC[C@@H](C(=O)O)NC(=O)[C@H]([C@@H](C)O)NC(=O)CNC(=O)[C@@H]2CSSC[C@@H]3NC(=O)[C@H](CCC(N)=O)NC(=O)[C@H](Cc4ccccc4)NC(=O)[C@H](C)NC(=O)[C@H](CCCNC(=N)N)NC(=O)[C@H](CSSC[C@H](NC(=O)[C@H](Cc4ccccc4)NC(=O)[C@H](CO)NC(=O)[C@H](CC(C)C)NC(=O)[C@H](CCCNC(=N)N)NC(=O)[C@H](Cc4ccc(O)cc4)NC(=O)[C@H](CCCCN)NC(=O)[C@H](CCSC)NC(=O)[C@H](CO)NC(=O)[C@H](Cc4cnc[nH]4)NC(=O)[C@H](CCCCN)NC3=O)C(=O)N[C@@H](CCCNC(=N)N)C(=O)N[C@@H](CCCCN)C(=O)N[C@@H]([C@@H](C)O)C(=O)N2)NC(=O)[C@H](CCCNC(=N)N)NC(=O)[C@H](CO)NC(=O)[C@H](CCCCN)NC(=O)[C@@H]2CCCN2C(=O)[C@H]([C@@H](C)CC)NC(=O)[C@H]([C@@H](C)O)NC(=O)[C@H](CC(=O)O)NC1=O`, the IC50 [1] is reported as 398 pM, the IC50 [2] is reported as 635 pM and the IC50 [3] is reported as 152 pM.
